Assay results taken from patent US20080269348A1, “Novel Arylbicyclo[3.1.0]Hexylamines And Methods And Compositions For Their Preparation And Use” (priority 2006, published 2008).

Tests used:
serotonin (5-HT) uptake = biological target: T1, serotonin (5-HT) uptake (Rattus norvegicus, UniProt P31652); experiment: biochemical; conditions: read-out: Uptake Inhibition % at 500 nM 5-HT
T1 construct: synaptosomal preparations were made from either whole brain (5-HT), striatum (DA) or hypothalamus (NE); from tissue; host or cells: rat whole brain synaptosomes
Protocol: (§1) The effects of arylbicyclo[3.1.0]hexylamines of the invention for inhibiting transport of norepinephrine (NE) and/or dopamine (DA) and/or serotonin (5-HT) were evaluated using preparations of synaptosomes from different regions of the rat brain according to previously-reported techniques.
(§2) Whole brains were obtained from normal rats, and synaptosomal preparations were made from either whole brain (5-HT), striatum (DA) or hypothalamus (NE) by gentle disruption in 10 volumes (w/v) of 0.32 M sucrose (0-4° C.) using a Teflon-glass homogenizer. The homogenate was then centrifuged at 1000×g for 10 min. The supernatant was retained and centrifuged at 23000 g for 20 min. The resulting pellet was gently resuspended in 200 volumes of 0.32 M sucrose (0-4° C.) using a teflon-glass homogenizer. Aliquots (250 μL) of this preparation were added to tubes, along with 0.2 μCi/mL of [^3H]5-HT, [^3H]DA, or [^3H]NE, 200 μL of selected 1-arylbicyclo[3.1.0]hexanamine test compounds (to yield final concentrations of 500 nM) and 1 mL of Krebs-Ringer bicarbonate buffer (pH 7.4). […] At the end of this period, the assay was terminated by rapid filtration over Whatman GF/C glass fiber filters. The filters were rinsed 3 times with 4 ml of Krebs-Ringer bicarbonate buffer (0-4° C.), and the radioactivity retained on the filters was measured by liquid scintillation spectrometry.

dopamine (DA) uptake = biological target: T2, dopamine (DA) uptake (Rattus norvegicus, UniProt P23977); experiment: biochemical; conditions: read-out: Uptake Inhibition % at 500 nM DA
T2 construct: synaptosomal preparations were made from either whole brain (5-HT), striatum (DA) or hypothalamus (NE); from tissue; host or cells: rat striatum synaptosomes
Protocol: as §1, §2

[1] = biological target: T3, norepinephrine (NE) uptake (Rattus norvegicus, UniProt Q63380); experiment: Inhibition of [3H]NE uptake in rat hypothalamus synaptosomes; format: biochemical; conditions: 500 nM, 20 min at 37° C.
T3 construct: synaptosomal preparations were made from either whole brain (5-HT), striatum (DA) or hypothalamus (NE); from tissue; host or cells: rat hypothalamus synaptosomes
Protocol: as §1, §2

T3 sequence (Q63380 1-617): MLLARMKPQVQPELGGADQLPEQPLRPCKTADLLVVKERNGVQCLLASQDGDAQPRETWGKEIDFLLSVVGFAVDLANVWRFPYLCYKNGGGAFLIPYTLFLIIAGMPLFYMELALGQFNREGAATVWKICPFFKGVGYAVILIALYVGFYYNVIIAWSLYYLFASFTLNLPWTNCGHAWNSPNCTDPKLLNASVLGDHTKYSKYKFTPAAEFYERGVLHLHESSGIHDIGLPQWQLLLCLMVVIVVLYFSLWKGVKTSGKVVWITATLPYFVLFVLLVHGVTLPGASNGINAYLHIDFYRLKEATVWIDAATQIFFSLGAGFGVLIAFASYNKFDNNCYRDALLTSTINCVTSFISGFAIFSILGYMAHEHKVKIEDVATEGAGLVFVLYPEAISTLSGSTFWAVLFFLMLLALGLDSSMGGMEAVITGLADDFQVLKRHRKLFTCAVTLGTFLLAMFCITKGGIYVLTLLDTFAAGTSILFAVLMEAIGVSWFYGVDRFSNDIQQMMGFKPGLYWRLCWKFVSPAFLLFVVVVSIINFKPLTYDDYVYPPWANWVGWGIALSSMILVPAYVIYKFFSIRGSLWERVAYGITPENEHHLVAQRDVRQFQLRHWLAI
T2 sequence (P23977 whole entry): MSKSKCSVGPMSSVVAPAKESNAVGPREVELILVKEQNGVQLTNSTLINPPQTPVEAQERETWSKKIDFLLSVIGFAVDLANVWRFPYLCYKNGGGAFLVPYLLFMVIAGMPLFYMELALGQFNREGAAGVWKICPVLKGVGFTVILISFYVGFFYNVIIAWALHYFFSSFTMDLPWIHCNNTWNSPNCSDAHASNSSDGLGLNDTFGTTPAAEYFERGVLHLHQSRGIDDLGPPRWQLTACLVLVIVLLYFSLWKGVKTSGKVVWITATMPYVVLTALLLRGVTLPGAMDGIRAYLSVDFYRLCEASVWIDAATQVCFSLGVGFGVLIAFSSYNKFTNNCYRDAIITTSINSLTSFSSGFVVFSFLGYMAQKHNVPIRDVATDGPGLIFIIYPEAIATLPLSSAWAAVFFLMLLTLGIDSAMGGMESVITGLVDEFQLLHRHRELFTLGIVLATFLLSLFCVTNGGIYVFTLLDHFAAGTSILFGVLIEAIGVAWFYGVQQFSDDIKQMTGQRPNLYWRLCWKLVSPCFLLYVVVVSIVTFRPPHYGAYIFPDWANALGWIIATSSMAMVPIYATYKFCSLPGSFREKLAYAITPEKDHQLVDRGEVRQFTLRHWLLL
T1 sequence (P31652 whole entry): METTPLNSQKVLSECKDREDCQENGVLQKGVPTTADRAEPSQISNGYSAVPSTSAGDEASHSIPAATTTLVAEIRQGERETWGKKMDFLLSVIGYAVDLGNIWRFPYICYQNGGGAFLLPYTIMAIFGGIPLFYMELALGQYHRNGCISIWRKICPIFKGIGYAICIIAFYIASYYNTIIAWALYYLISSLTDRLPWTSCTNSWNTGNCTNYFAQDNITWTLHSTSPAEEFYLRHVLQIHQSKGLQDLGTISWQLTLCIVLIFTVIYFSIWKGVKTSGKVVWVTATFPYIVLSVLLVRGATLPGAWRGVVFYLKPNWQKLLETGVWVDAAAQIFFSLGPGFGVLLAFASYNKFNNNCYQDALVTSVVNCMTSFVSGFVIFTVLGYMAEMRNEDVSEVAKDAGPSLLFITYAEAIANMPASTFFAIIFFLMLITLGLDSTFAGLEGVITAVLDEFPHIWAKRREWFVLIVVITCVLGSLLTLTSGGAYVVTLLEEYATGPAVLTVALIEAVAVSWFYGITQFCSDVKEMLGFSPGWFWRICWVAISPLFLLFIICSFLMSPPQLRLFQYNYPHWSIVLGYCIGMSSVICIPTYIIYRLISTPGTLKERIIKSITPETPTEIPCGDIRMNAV

Compound	inhibition at 0.5 µM (serotonin (5-HT) uptake)	inhibition at 0.5 µM (dopamine (DA) uptake)	inhibition at 0.5 µM [1]
NC1C[C@H]2C[C@]2(c2ccc(Cl)c(Cl)c2)C1 (stereo partly drawn)	75%	83%	59%
NC1C[C@H]2C[C@]2(c2cccc3ccccc23)C1 (stereo partly drawn) [5-p-tolylbicydo[3.1.0]hexan-2-amine]	74%	39%	42%
